Measurements: US12678453B2, “Aerosolized formulations of HIV protease inhibitors for the treatment of airway reflux” (The Medical College of Wisconsin, Inc., priority 2020, dated 2026)
“Also recorded” adds a separate entry of the source.

Molecular target: T1, porcine pepsin (Sus scrofa, UniProt P00791)
T1 construct: purchased Worthington (Lakewood, NJ)
Test: peptic activity assay (fluorescence polarization, casein-Alexa647 substrate)
Type: biochemical
Details: for inhibition of pepsin activity: 200 nM casein-Alexa647, 0.01 U/μL pepsin, 5% DMSO, FIG. 3B; for IC50 for pepsin: bind to and inhibit pepsin, numbers only in FIG. 3
Text: Fluorescent polarization assays were developed to test compound binding and inhibition of pepsin (FIG. 1). A competitive binding assay was developed using pepstatin, a known inhibitor of pepsin with subnanomolar affinity^91 (Roberts 2003). This binding assay measures the relative binding affinity but not the enzymatic inhibition of compounds. Thus, a separate peptic activity assay was developed, which uses fluorescently labelled alpha casein as substrate. Both assays are based on the principle of fluorescence polarization (FP), which holds that as the molecular size of a fluorescent species is altered through dissociation/breakdown or association/binding events, the degree of depolarization of plane polarized light changes accordingly, directly affecting the FP value.^92 (Lea 2011). In the assays used herein, millipolarization (mP) decreases as casein-Alexa647 is degraded by pepsin and increases with binding of pepsin to pepstatin-Alexa647.
Casein was labeled as described by Jolley (1996)^93 using a 2.5 ug/mg label to protein ratio. Specifically, 200 ul 10 mg/ml bovine alpha casein (C6780 Sigma Aldrich, St. Louis, MO) in 0.1M sodium bicarbonate was incubated with 5 ul 1 mg/ml Alexa Fluor 647 Carboxylic Acid, Succinimidyl Ester (in DMSO; A-20106 ThermoFisher Scientific, Waltham, MA) for 15 minutes at room temperature. The mixture was applied to a Sephadex G-25 column (90×5 mm) in a glass Pasteur pipette. Elution was performing using D-PBS pH7.4 (ThermoFisher Scientific) containing 0.1% sodium azide. The fast-moving band containing casein-bound fluorophore was collected in a volume of approximately 0.4 ml. Concentration of resultant probe (casein-Alexa647 in PBS-azide) was estimated via spectrophotometry using Beer's law (Implen Nanophotometer, Implen, Inc. Westlake Village, CA). Probe was aliquoted and stored at −20° C. until use.
Assays were performed in 20 ul volumes in 384-well black optical plates (Nunc, Roskilde, DK). Pepstatin dose response curves were used to optimize pepsin/inhibitor concentrations and assay incubation times. Dose response was performed using 0.3-1000 uM unlabeled pepstatin with 100-500 nM pepstatin-Alexa647 probe, 0.003-3U/μl porcine pepsin (Worthington, Lakewood, NJ), and 10-37% dimethyl sulfoxide (HIV protease inhibitor diluent) in 0.1M HCl, pH1+0.01% Tween-20. Reagents were combined (with pepsin added last) in 50% of the final reaction volume for mixing and immediately read on a BioTek Cytation (BioTek Instruments, Winooski, VT) with far-red FP filter cube at excitation/emission of […] for five minutes, in at least triplicate. Averaged polarization values of replicate reads were plotted against probe or labeled pepstatin concentrations in GraphPad Prism 8 (La Jolla, CA). Reagent concentrations yielding greatest dynamic range were selected for the assay. The peptic activity assay was optimized similarly using casein-Alexa647 probe in 0.1M HCl, pH1+0.01% Tween-20. Reagents were combined (adding pepsin last) and read immediately at minimal intervals (<2 minutes apart) over 30 minutes. The assay was performed in triplicate and mean polarization value was plotted over time.
HIV protease inhibitors were dissolved in DMSO. […] Compounds were tested under optimized assay conditions over a range of three logs concentration in triplicate and plotted using GraphPad Prism 8. Half-maximal inhibitory concentration (IC50) were calculated from kinetic traces analyzed using an online tool (icekat.herokuapp.com/icekat, O1p 2019^95). Percent bound and percent activity were calculated by normalization to the measured polarization value without HIV protease inhibitor compound.
Our team developed and optimized two high-throughput screening (HTS) assays to identify compounds that are specific and sensitive inhibitors of pepsin (FIG. 1). The first assay is a binding assay that measures the ability of a compound to compete with fluorescently labeled pepstatin for its binding site on pepsin.

T1 sequence (P00791 60-385): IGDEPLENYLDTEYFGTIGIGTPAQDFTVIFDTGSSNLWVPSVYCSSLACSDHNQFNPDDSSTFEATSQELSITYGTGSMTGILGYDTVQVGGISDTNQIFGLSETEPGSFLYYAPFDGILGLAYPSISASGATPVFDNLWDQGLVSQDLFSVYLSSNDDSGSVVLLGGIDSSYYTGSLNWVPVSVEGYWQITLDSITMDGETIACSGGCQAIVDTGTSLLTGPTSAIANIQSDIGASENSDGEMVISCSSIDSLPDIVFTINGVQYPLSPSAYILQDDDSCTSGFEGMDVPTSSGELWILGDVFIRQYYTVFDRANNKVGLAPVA

SMILES | inhibition of pepsin activity | IC50 for pepsin
CC(C)c1nc(CN(C)C(=O)N[C@H](C(=O)N[C@@H](Cc2ccccc2)C[C@H](O)[C@H](Cc2ccccc2)NC(=O)OCc2cncs2)C(C)C)cs1 [ritonavir, 1,3-thiazol-5-ylmethyl N-[(2S,3 S,5S)-3-hydroxy-5-[[(2S)-3-methyl-2-[[methyl-[(2-propan-2-yl-1,3-thiazol-4-yl)methyl]carbamoyl]amino]butanoyl]amino]-1,6-diphenylhexan-2-yl]carbamate] | inhibition of pepsin activity | –
CC(C)CN(C[C@@H](O)[C@H](Cc1ccccc1)NC(=O)O[C@H]1CCOC1)S(=O)(=O)c1ccc(N)cc1 [amprenavir, [(3S)-oxolan-3-yl] N-[(2S,3R)-4-[(4-aminophenyl)sulfonyl-(2-methylpropyl)amino]-3-hydroxy-1-phenylbutan-2-yl]carbamate] | inhibition of pepsin activity | low micromolar range
CC(C)(C)NC(=O)[C@@H]1C[C@@H]2CCCC[C@@H]2CN1C[C@@H](O)[C@H](Cc1ccccc1)NC(=O)[C@H](CC(N)=O)NC(=O)c1ccc2ccccc2n1 [saquinavir, (2S)—N-[(2S,3R)-4-[(3 S,4aS,8aS)-3-(tert-butylcarbamoyl)-3,4,4a,5,6,7,8,8a-octahydro-1H-isoquinolin-2-yl]-3-hydroxy-1-phenylbutan-2-yl]-2-(quinoline-2-carbonylamino)butanediamide] | inhibition of pepsin activity | low micromolar range
CC(C)CN(C[C@@H](O)[C@H](Cc1ccccc1)NC(=O)O[C@H]1CO[C@H]2OCC[C@H]21)S(=O)(=O)c1ccc(N)cc1 [darunavir, [(3a S,4R,6aR)-2,3,3a,4,5,6a-hexahydrofuro[2,3-b]furan-4-yl] N-[(2S,3R)-4-[(4-aminophenyl)sulfonyl-(2-methylpropyl)amino]-3-hydroxy-1-phenylbutan-2-yl]carbamate] | inhibition of pepsin activity | low micromolar range; also recorded: lowest IC50
